Laboratory results taken from patent US20170119806A1, “[…] LACTONE DERIVATIVES AND METHODS OF MAKING AND USING THEREOF” (OHIO STATE INNOVATION FOUNDATION, priority 2014, published 2017).
Entries after “also recorded” stand apart in the source; their conditions may differ. Where two headings read alike, the source gives them in different places.

How the values were obtained:
[1] = test system: HT-29 human colon cancer cells; assay: Cytotoxicity against HT-29 cells
[2] = test system: CCD-112CoN normal human colon cells; assay: Cytotoxicity against CCD-112CoN cells; settings: for IC50: read-out: IC50 values toward the CCD-112 CoN cells
From the text: Following a previous procedure (Still P C et al. J. Nat. Prod. 2013, 76, 243-249) and the method for screening cytotoxicity towards HT-29 cells mentioned above, the cytotoxicity of the samples was screened against CCD-112CoN normal human colon cells.

[3] = test system: human colon cancer HT-29 cells implanted in NCr nu/nu mice; settings: ip once daily for four days; for activity in in vivo hollow fiber assay (HT-29 cell growth): 5.0-20.0 mg/kg; for toxicity in mice of the hollow fiber assay: up to 20.0 mg/kg
Procedure: Mice were treated with the indicated doses of 1 once a day by intraperitoneal injection from day 3 to day 6 after implantation of the HT-29 cells facilitated in hollow fibers.
In Vivo Hollow Fiber Assay. […] The human colon cancer cell line HT-29 was used to evaluate 1 using procedures previously described (Mi Q et al. J. Nat. Prod 2009, 72,573-580; Pearce C J et al. Methods Mol. Biol, 2012, 944, 267-277). Eight- to nine-week-old immunodeficient NCr nu/nu mice were purchased from The Jackson Laboratory (Bar Harbor, Me., USA) and housed in microisolation cages at room temperature and a relative humidity of 50-60% under 12:12 h light-dark cycle. […] The mixture was diluted with distilled water to 13% DMSO and 25% CREMOPHOR™. The mice were injected ip once daily for four days with 1 or the positive control (paclitaxel). Each mouse was weighed daily during the study. […] The fibers were retrieved and viable cell mass was evaluated by a modified MTT (3-(4,5-dimethylthiazol-2-yl)-2,5-diphenyltetrazolium bromide) assay. The percentage of the net growth for the cells in each treatment group was calculated by subtracting the day 0 absorbance from the day 7 absorbance and dividing this difference by the net growth in the vehicle control (minus value between the day 7 and the day). Data were compared by the Student's t test, and a p value less than 0.05 was considered statistically significant.
Immunodeficient NCr nu/nu mice implanted with human colon cancer HT-29 cells placed in hollow fibers were treated once daily by 1 at doses of 5.0, 10.0, 15.0, or 20.0 mg/kg, or the vehicle control, or paclitaxel (5 mg/kg), by intraperitoneal (ip) injection tier four days. The relative FIT-29 cell growth values from all mice were calculated.

HT-29 cells = assay: Annexin V staining apoptosis assay; settings: for HT-29 cell apoptosis at the late-stage / HT-29 cells undergoing early apoptosis: 72 h
Procedure: Lower left quadrant: the percentage of viable cells; lower right quadrant: the percentage of apoptotic cells; upper left quadrant: the percentage of necrotic cells; upper right quadrant: the percentage of the late-stage apoptotic or dead cells.
Annexin V Staining Method. […] The cells were washed with Annexin V binding buffer, centrifuged at 300×g for 10 min, and suspended (1×10^6) in 100 μL, of 1× Annexin V binding buffer. Then, 10 μL of Annexin fluorochrome was added to the suspension. After the suspension was mixed and incubated in a dark room at room temperature for 15 min, the cells were centrifuged, and the cell pellet was resuspended (1×10^6) in 100 μL of 1× Annexin V binding buffer. Next, 10 μL of Anti-Biotin-APC were added, and the cells incubated at 4-8° C. in a dark room for 10 min were centrifuged, The cell pellet was resuspended (1×10^6) in 500 μL of 1× Annexin V Binding Buffer. After 5 μg/mL of 7-AAD solution was added in the suspension, flow cytometry was conducted immediately.

topo IIα = topo IIα (Homo sapiens, UniProt P11388); assay: Topoisomerase II assay (DNA cleavage/relaxation); assay type: biochemical; settings: 100 μM test compound
Sequence of topo IIα (P11388 whole entry): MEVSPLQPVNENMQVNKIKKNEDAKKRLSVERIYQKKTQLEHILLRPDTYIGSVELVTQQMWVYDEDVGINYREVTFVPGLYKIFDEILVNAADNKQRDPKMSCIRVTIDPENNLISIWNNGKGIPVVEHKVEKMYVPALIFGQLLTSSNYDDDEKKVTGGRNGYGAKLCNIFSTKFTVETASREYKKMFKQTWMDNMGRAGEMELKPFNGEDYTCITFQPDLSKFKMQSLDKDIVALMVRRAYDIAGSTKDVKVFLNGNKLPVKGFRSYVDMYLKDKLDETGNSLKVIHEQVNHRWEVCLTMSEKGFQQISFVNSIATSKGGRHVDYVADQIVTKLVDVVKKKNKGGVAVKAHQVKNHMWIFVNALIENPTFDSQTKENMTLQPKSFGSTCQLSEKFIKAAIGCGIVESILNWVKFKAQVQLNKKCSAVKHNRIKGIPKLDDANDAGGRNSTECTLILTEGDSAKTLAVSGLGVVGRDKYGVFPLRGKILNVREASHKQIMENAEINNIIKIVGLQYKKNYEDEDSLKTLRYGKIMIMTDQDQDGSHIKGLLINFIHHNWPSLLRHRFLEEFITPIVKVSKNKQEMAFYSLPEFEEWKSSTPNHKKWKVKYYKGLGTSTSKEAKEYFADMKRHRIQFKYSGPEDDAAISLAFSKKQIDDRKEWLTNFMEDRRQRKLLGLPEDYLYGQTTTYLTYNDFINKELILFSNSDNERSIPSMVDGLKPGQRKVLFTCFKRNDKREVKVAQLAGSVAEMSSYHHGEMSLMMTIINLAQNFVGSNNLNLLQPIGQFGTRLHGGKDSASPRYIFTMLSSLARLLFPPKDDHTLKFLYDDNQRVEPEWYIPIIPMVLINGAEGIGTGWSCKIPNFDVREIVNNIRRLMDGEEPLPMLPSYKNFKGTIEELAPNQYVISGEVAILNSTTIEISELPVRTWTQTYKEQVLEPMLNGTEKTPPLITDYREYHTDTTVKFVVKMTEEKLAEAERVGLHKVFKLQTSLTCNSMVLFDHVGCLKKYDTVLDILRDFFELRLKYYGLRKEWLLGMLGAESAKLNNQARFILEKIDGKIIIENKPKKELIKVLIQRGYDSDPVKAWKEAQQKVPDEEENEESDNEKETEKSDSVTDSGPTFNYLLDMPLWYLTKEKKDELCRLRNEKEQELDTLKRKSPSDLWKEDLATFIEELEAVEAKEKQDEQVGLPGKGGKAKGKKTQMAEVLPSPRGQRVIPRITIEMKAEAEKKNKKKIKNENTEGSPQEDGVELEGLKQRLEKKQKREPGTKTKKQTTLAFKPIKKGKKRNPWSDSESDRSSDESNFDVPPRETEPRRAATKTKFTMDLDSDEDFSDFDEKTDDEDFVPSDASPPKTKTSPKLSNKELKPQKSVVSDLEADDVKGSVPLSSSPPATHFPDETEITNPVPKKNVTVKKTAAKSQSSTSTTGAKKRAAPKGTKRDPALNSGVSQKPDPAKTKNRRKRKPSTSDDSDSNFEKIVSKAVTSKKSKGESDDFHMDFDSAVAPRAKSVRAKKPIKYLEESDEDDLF
From the text: The formation of linear DNA was detected by separating the SDS-treated reaction products using ethidium bromide gel electrophoresis and quantified by accounting for the relationship between fluorescence and relative band intensity for open circular (OC), linear (LNR), supercoiled (SC), and relaxed (RLX) configurations of DNA.
Topoisomerase II Assay. […] The formation of linear DNA was detected by separating the SDS-treated reaction products using ethidium bromide gel electrophoresis by a modification of a previously described procedure (Hasinoff B B et al. Mol. Pharmacol. 2005, 67, 937-947). In this system, topo II-mediated catalytic conversion of supercoiled pBR322 DNA to the “relaxed” form of plasmic' DNA can also be observed. A 20 μL cleavage assay reaction mixture contained 250 ng topo IIα protein, 160 ng pBR322 plasmid DNA (NEB, Ipswich, Mass.), 1.0 mM ATP in assay buffer (10 mM Tris-HCl (pH 7.5), 50 mM KCl, 50 mM NaCl, 0.1 mM EDTA, 5 mM MgCl2, 2.5% glycerol), and 100 μM of test compounds or DMSO solvent, as indicated. Assay buffer (17 μL) and test compound/DMSO (1 μL) were mixed and allowed to sit at room temperature for 30 min after which 2 μL of topo IIα was added to initiate the reaction. Tubes were incubated at 37° C. for 15 min, and then quenched with 1% (v/v) SDS/10 mM disodium EDTA/200 mM NaCl. The mixture was treated subsequently with 0.77 mg/mL proteinase K (Sigma) at 55° C. for 60 min to digest the protein, and DNA bands were separated by electrophoresis (18 h at 2 V/cm) on an agarose gel (1.3% w/v) containing 0.7 μg/mL ethidium bromide in TAE buffer pH 8.0 (40 mM Tris base, 0.114% (v/v) glacial acetic acid, 2 mM EDTA). The DNA in the gel was imaged by its fluorescence on a Chemi-Doc XRS+ imager (Bio-Rad, Hercules, Calif.). Linear DNA was quantified by accounting for the relationship between fluorescence and relative band intensity for open circular (QC), linear (LNR), supercoiled (SC), and RLX (relaxed) configurations of DNA (Projan S J et al. Plasmid 1983, 9, 182-190), then calculating % of LNR from the total DNA content in each lane.

[4] = test system: HT-29 human colon cancer cells
[5] = read-out: IC50 values toward the HT-29 cells, Table 6, triplicate, two independent experiments
[6] = Homo sapiens, HT-29, read-out: IC50 values toward the HT-29 cells

For `COc1cc2c(O[C@@H]3OC[C@H](OC(C)=O)[C@H](OC(C)=O)[C@H]3O)c3c(c(-c4ccc5c(c4)OCO5)c2cc1OC)C(=O)OC3` [Compound 1, 7-O-[(3,4-di-O-acetyl)-α-L-arabinopyranosyl] diphyllin], the EC50 ([1]; read-out: ED50, toxicity towards HT-29 cells, natural samples) was 0.17 µM, the IC50 ([1]; read-out: IC50, cytotoxicity toward HT-29 cells) was 0.17 µM and the “cytotoxicity toward CCD-112CoN human normal colon cells (in words)” value [2] was “non-cytotoxic”. For the same compound, the IC50 ([2]; Table 6) was > 100 µM, the “activity in in vivo hollow fiber assay (HT-29 cell growth)” value [3] was “showed activity; also recorded: dose dependent tendency; also recorded: active; also recorded: antitumor efficacy in vivo” and the “activity in in vivo hollow fiber assay (HT-29 cell growth)” value ([3]; listed as Phyllanthusmin D) was “active”. For the same compound, the “toxicity in mice of the hollow fiber assay” value [3] was “no signs of toxicity; also recorded: No gross toxicity; also recorded: without any gross toxicity”, the “toxicity in mice of the hollow fiber assay” value ([3]; listed as Phyllanthusmin D) was “no signs of gross toxicity” and the “HT-29 cell apoptosis induction (in words)” value (HT-29 cells) was “inducing tumor cell apoptosis; also recorded: induction of tumor cell apoptosis; also recorded: can induce HT-29 cell apoptosis”. The “HT-29 cell apoptosis at the late-stage” value (HT-29 cells; 1 μM) was 27.3%, the “HT-29 cells undergoing early apoptosis” value (HT-29 cells; 1 μM) was 28.2% and the “HT-29 cell apoptosis at the late-stage” value (HT-29 cells; 5 μM) was 38.0%. The “HT-29 cells undergoing early apoptosis” value (HT-29 cells; 5 μM) was 30.3% and the “topo IIα inhibition (in words)” value (topo IIα) was “did not inhibit DNA topoisomerase IIα activity; also recorded: not topo Ha inhibitors; also recorded: no inhibitory activity against topo IIα; also recorded: not topo IIα inhibitors”.

`COc1cc2c(O[C@@H]3OC[C@H](O)[C@H](OC(C)=O)[C@H]3O)c3c(c(-c4ccc5c(c4)OCO5)c2cc1OC)C(=O)OC3` [Compound 2, 7-O-[(3-O-acetyl)-α-L-arabinopyranosyl] diphyllin] was tested, and the IC50 [1, 5] was 1.8 µM.

With `COc1cc2c(O[C@@H]3OC[C@H](OC(C)=O)[C@H](O)[C@H]3O)c3c(c(-c4ccc5c(c4)OCO5)c2cc1OC)C(=O)OC3` [Compound 3, Phyllanthusmin B] the IC50 [1, 5] was 1.8 µM and the “cytotoxicity toward HT-29 cells (in words)” value [4] was “cytotoxic”.

In the case of `COc1cc2c(O[C@@H]3O[C@H](CO)[C@@H](O)[C@H](O)[C@H]3O)c3c(c(-c4ccc5c(c4)OCO5)c2cc1OC)C(=O)OC3` [Compound 5, Cleistanthin B], the IC50 [1, 5] is reported as > 10 µM.

In the case of `COc1cc2c(OC)c3c(c(-c4ccc5c(c4)OCO5)c2cc1O)C(=O)OC3` [Compound 6, Phyllanthusmin A], the IC50 [1, 5] is reported as > 10 µM and the “cytotoxicity toward HT-29 cells (in words)” value [4] is reported as “inactive”.

Work on `COc1cc2c(O)c3c(c(-c4ccc5c(c4)OCO5)c2cc1OC)C(=O)OC3` [Compound 8, Diphyllin] yielded an IC50 [1, 6] of 7.6 µM.

With `COc1cc([C@@H]2c3cc4c(cc3[C@@H](O[C@@H]3O[C@@H]5CO[C@@H](C)O[C@H]5[C@H](O)[C@H]3O)[C@H]3COC(=O)[C@H]23)OCO4)cc(OC)c1O` [etoposide, reference compound] the IC50 [1, 6] was > 10 µM, the “HT-29 cell apoptosis at the late-stage” value (HT-29 cells; 1 μM) was 19.8% and the “HT-29 cells undergoing early apoptosis” value (HT-29 cells; 1 μM) was 12.9%. For the same compound, the “HT-29 cell apoptosis at the late-stage” value (HT-29 cells; 5 μM) was 25.3% and the “HT-29 cells undergoing early apoptosis” value (HT-29 cells; 5 μM) was 12.5%.

`CC(=O)O[C@H]1C(=O)[C@@]2(C)[C@H]([C@H](OC(=O)c3ccccc3)[C@]3(O)C[C@H](OC(=O)[C@H](O)[C@@H](NC(=O)c4ccccc4)c4ccccc4)C(C)=C1C3(C)C)[C@]1(OC(C)=O)CO[C@@H]1C[C@@H]2O` [paclitaxel, reference compound] was tested, and the IC50 [1, 6] was 0.001 µM and the IC50 ([2]; Homo sapiens, CCD-112CoN) was 23 µM.
